{"source": "patent US20020064511A1", "about": "“Water-soluble polymers for the reduction of dietary phosphate or oxalate absorption” (priority 1996, published 2002)", "assay": "Complexation of phosphate in NaH2PO4 solution, Centricon 30 filtrate phosphorus by ICP", "format": "binding", "experimental": "In each of four tubes, 0.54 mL of this solution (0.19 mmol of monomer units) were mixed with 10 mL of 0.0207 M NaH2PO4 and appropriate amounts of HCl and NaOH to make solutions of pH 3, pH 4.5, pH 6, and pH 7.5. Tubes with the same pH were also prepared with 10 mL of 0.0207 M NaH2PO4and 0.50 mL of 1.5 M CaCO, (0.749 mmol). Control tubes were also prepared with the sodium phosphate solution and the adjustment of pH. All tubes were diluted to 12 mL with water. The tubes were agitated for one hour. The solutions were then placed in separate Centricon™ 30 molecular weight cutoff tubes and centrifuged for 30 minutes. The filtrate collected was analyzed for phosphorus by inductively coupled plasma spectroscopy.\nIn each of four tubes, 0.67 mL of this solution (0.18 mmol of monomer units) were mixed with 10 mL of 0.0207 M NaH2PO4 and appropriate amounts of HCl and NaOH to make solutions of pH 3, pH 4.5, pH 6, and pH 7.5. Tubes with the same pH were also prepared with 10 mL of 0.0207 M NaH2PO4 and 0.50 mL of 1.5 M CaCO3 (0.749 mmol). Control tubes were also prepared with the sodium phosphate solution and the adjustment of pH. All tubes were diluted to 12 mL with water. The tubes were agitated for one hour. The solutions were then placed in separate Centricon™ 30 molecular weight cutoff tubes and centrifuged for 30 minutes. The filtrate collected was analyzed for phosphorus by inductively coupled plasma spectroscopy."}
{"smiles": "O=C([O-])[O-].[Ca+2]", "note": "[calcium carbonate]", "values": [{"measurement": "phosphorus removed", "setting": "pH 3, 10 mL 0.0207 M NaH2PO4, one hour", "value": 16, "unit": "%"}, {"measurement": "phosphorus removed", "setting": "pH 4.5, 10 mL 0.0207 M NaH2PO4, one hour", "value": 13, "unit": "%"}, {"measurement": "phosphorus removed", "setting": "pH 6, 10 mL 0.0207 M NaH2PO4, one hour", "value": 9, "unit": "%"}, {"measurement": "phosphorus removed", "setting": "pH 7.5, 10 mL 0.0207 M NaH2PO4, one hour", "value": 7, "unit": "%"}]}
